The record followed here is PubChem BioAssay (NCI).

The structures appear in SMILES notation.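 Values below derive from 48-hour exposures of cells grown in 96-well plates, with endpoints linearly interpolated between the two concentrations bracketing the appropriate inhibition level. GI50 marks 50% less growth. TGI: concentration producing complete growth inhibition.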

One test deals with M14 melanoma. As to the kind of experiment: NCI anticancer screen, dose series, 48 h.
`C=C1C(=O)OC2/C=C(\C(=O)O)CC/C=C(\C)CC(OC(=O)/C=C(\C)CC)C12` (configuration not stated) yielded a TGI of 31.2 µM.
The same measure, in the same setting: the same measure for `O=C(c1ccccc1)c1ccc2n[se]nc2c1`: greater than 100 µM; for `CC(=O)C(C(c1ccccc1)N1CCOCC1)N1CCOCC1` (configuration not stated): greater than 100 µM; for `CCOP(=Nc1ccc(N(C)C)cc1)(OCC)OCC`: greater than 100 µM.
The same measure, in the same setting: the same measure for `CCC1C[N+]23CCc4c([nH]c5ccccc45)C2CC1CC3` (configuration not stated): greater than 100 µM; for `Cc1ccc(S(=O)(=O)Nc2cccc3c(=O)[nH]cnc23)cc1`: greater than 100 µM.

For a further test, the system named is OVCAR-3 ovarian. The test is described as follows: NCI anticancer screen, dose series, 48 h.
In turn, `C=C1C(=O)OC2/C=C(\C(=O)O)CC/C=C(\C)CC(OC(=O)/C=C(\C)CC)C12` (configuration not stated) came in with a TGI of 30.8 µM.
Still for that read-out and setting: the same measure for `CC(=O)C(C(c1ccccc1)N1CCOCC1)N1CCOCC1` (configuration not stated): greater than 100 µM.
The same measure, in the same setting: the same measure for `CCOP(=Nc1ccc(N(C)C)cc1)(OCC)OCC`: greater than 100 µM.
Regarding `CCCC(C)c1ccc(OCCCCCCN2CCNCC2)cc1` (configuration not stated), the GI50 was 1.78 µM and the TGI was 3.87 µM.
Regarding `CCC1C[N+]23CCc4c([nH]c5ccccc45)C2CC1CC3` (configuration not stated), the TGI is greater than 100 µM.
Still for that read-out and setting: the same measure for `CC1=C2C(O)C(C(C)C(=O)N(C)C)CCC2(C)C=CC1=O` (configuration not stated): greater than 100 µM; for `Cc1ccc(S(=O)(=O)Nc2cccc3c(=O)[nH]cnc23)cc1`: greater than 100 µM; for `O=C1C=C(C2OC(CO)C(O)C2O)C(=O)N1` (configuration not stated): greater than 100 µM.

For another test, the system named is CCRF-CEM leukemia. As to the kind of experiment: NCI anticancer screen, dose series, 48 h.
As to `C=C1C(=O)OC2/C=C(\C(=O)O)CC/C=C(\C)CC(OC(=O)/C=C(\C)CC)C12` (configuration not stated), the TGI was greater than 100 µM.
Regarding `O=C(c1ccccc1)c1ccc2n[se]nc2c1`, the TGI is greater than 100 µM.
Molecule `CC(=O)C(C(c1ccccc1)N1CCOCC1)N1CCOCC1` (configuration not stated) returned a TGI greater than 100 µM.
As to `CCCC(C)c1ccc(OCCCCCCN2CCNCC2)cc1` (configuration not stated), the GI50 was 2.44 µM and the TGI was found to be 7.46 µM.
Molecule `CCC1C[N+]23CCc4c([nH]c5ccccc45)C2CC1CC3` (configuration not stated) yielded a TGI greater than 100 µM.
The molecule `CC1=C2C(O)C(C(C)C(=O)N(C)C)CCC2(C)C=CC1=O` (configuration not stated) had a TGI greater than 100 µM.
On the same count and under the same terms, the same measure for `Cc1ccc(S(=O)(=O)Nc2cccc3c(=O)[nH]cnc23)cc1`: greater than 100 µM; for `O=C1C=C(C2OC(CO)C(O)C2O)C(=O)N1` (configuration not stated): greater than 89.5 µM.

The subject of the next test is COLO 205 colon. As to the kind of experiment: NCI anticancer screen, dose series, 48 h.
Take `C=C1C(=O)OC2/C=C(\C(=O)O)CC/C=C(\C)CC(OC(=O)/C=C(\C)CC)C12` (configuration not stated): the TGI came to 31.3 µM.
Molecule `O=C(c1ccccc1)c1ccc2n[se]nc2c1` registered a TGI of 84.1 µM.
On the same count and under the same terms, the same measure for `CC(=O)C(C(c1ccccc1)N1CCOCC1)N1CCOCC1` (configuration not stated): greater than 100 µM; for `CCOP(=Nc1ccc(N(C)C)cc1)(OCC)OCC`: greater than 100 µM.
Consider `CCCC(C)c1ccc(OCCCCCCN2CCNCC2)cc1` (configuration not stated), for which the GI50 was 1.65 µM and the TGI stood at 3.42 µM.
`CCC1C[N+]23CCc4c([nH]c5ccccc45)C2CC1CC3` (configuration not stated): the TGI is greater than 100 µM.
On the same count and under the same terms, the same measure for `CC1=C2C(O)C(C(C)C(=O)N(C)C)CCC2(C)C=CC1=O` (configuration not stated): greater than 100 µM; for `Cc1ccc(S(=O)(=O)Nc2cccc3c(=O)[nH]cnc23)cc1`: greater than 100 µM.
The same measure, in the same setting: the same measure for `O=C1C=C(C2OC(CO)C(O)C2O)C(=O)N1` (configuration not stated): greater than 100 µM.

A further test has as its system EKVX NSCLC. The test is described as follows: NCI anticancer screen, dose series, 48 h.
Molecule `C=C1C(=O)OC2/C=C(\C(=O)O)CC/C=C(\C)CC(OC(=O)/C=C(\C)CC)C12` (configuration not stated) displayed a TGI of 59.3 µM.
The same measure, in the same setting: the same measure for `O=C(c1ccccc1)c1ccc2n[se]nc2c1`: greater than 100 µM; for `CC(=O)C(C(c1ccccc1)N1CCOCC1)N1CCOCC1` (configuration not stated): greater than 100 µM.
Still for that read-out and setting: the same measure for `CCOP(=Nc1ccc(N(C)C)cc1)(OCC)OCC`: greater than 100 µM.
As to `CCCC(C)c1ccc(OCCCCCCN2CCNCC2)cc1` (configuration not stated), the GI50 is 2.34 µM and the TGI was 6.63 µM.
As for `CCC1C[N+]23CCc4c([nH]c5ccccc45)C2CC1CC3` (configuration not stated), the TGI is greater than 100 µM.
The same measure, in the same setting: the same measure for `CC1=C2C(O)C(C(C)C(=O)N(C)C)CCC2(C)C=CC1=O` (configuration not stated): greater than 100 µM.
Regarding `Cc1ccc(S(=O)(=O)Nc2cccc3c(=O)[nH]cnc23)cc1`, the TGI was greater than 100 µM.
On the same count and under the same terms, the same measure for `O=C1C=C(C2OC(CO)C(O)C2O)C(=O)N1` (configuration not stated): greater than 100 µM.

Another test has as its system OVCAR-5 ovarian. The test is described as follows: NCI anticancer screen, dose series, 48 h.
Consider `C=C1C(=O)OC2/C=C(\C(=O)O)CC/C=C(\C)CC(OC(=O)/C=C(\C)CC)C12` (configuration not stated), for which the TGI was determined as 26.6 µM.
`O=C(c1ccccc1)c1ccc2n[se]nc2c1` came in with a TGI greater than 100 µM.
Same read-out and setting: the same measure for `CC(=O)C(C(c1ccccc1)N1CCOCC1)N1CCOCC1` (configuration not stated): greater than 100 µM; for `CCOP(=Nc1ccc(N(C)C)cc1)(OCC)OCC`: greater than 100 µM.
As for `CCCC(C)c1ccc(OCCCCCCN2CCNCC2)cc1` (configuration not stated), the GI50 is 2.73 µM and the TGI was 7.9 µM.
In turn, `CCC1C[N+]23CCc4c([nH]c5ccccc45)C2CC1CC3` (configuration not stated) gave a TGI greater than 100 µM.
The molecule `CC1=C2C(O)C(C(C)C(=O)N(C)C)CCC2(C)C=CC1=O` (configuration not stated) showed a TGI greater than 100 µM.
`Cc1ccc(S(=O)(=O)Nc2cccc3c(=O)[nH]cnc23)cc1` returned a TGI greater than 100 µM.
Molecule `O=C1C=C(C2OC(CO)C(O)C2O)C(=O)N1` (configuration not stated) returned a TGI greater than 100 µM.

Another test concerns A549 NSCLC. The test is described as follows: NCI anticancer screen, dose series, 48 h.
In turn, `C=C1C(=O)OC2/C=C(\C(=O)O)CC/C=C(\C)CC(OC(=O)/C=C(\C)CC)C12` (configuration not stated) displayed a TGI of 31.6 µM.
The molecule `O=C(c1ccccc1)c1ccc2n[se]nc2c1` gave a TGI greater than 100 µM.
Turning to `CC(=O)C(C(c1ccccc1)N1CCOCC1)N1CCOCC1` (configuration not stated), the TGI is greater than 100 µM.
For `CCOP(=Nc1ccc(N(C)C)cc1)(OCC)OCC`, the TGI is greater than 100 µM.
`CCCC(C)c1ccc(OCCCCCCN2CCNCC2)cc1` (configuration not stated): the GI50 is 1.9 µM and the TGI was 4.34 µM.
For the molecule `CC1=C2C(O)C(C(C)C(=O)N(C)C)CCC2(C)C=CC1=O` (configuration not stated), the TGI was greater than 100 µM.
The molecule `Cc1ccc(S(=O)(=O)Nc2cccc3c(=O)[nH]cnc23)cc1` yielded a TGI greater than 100 µM.
In turn, `O=C1C=C(C2OC(CO)C(O)C2O)C(=O)N1` (configuration not stated) had a TGI greater than 100 µM.

For the next test, the system named is U251 CNS. The test is described as follows: NCI anticancer screen, dose series, 48 h.
The molecule `C=C1C(=O)OC2/C=C(\C(=O)O)CC/C=C(\C)CC(OC(=O)/C=C(\C)CC)C12` (configuration not stated) had a TGI of 30.7 µM.
The molecule `O=C(c1ccccc1)c1ccc2n[se]nc2c1` returned a TGI greater than 100 µM.
Still for that read-out and setting: the same measure for `CC(=O)C(C(c1ccccc1)N1CCOCC1)N1CCOCC1` (configuration not stated): greater than 100 µM; for `CCOP(=Nc1ccc(N(C)C)cc1)(OCC)OCC`: greater than 100 µM.
Consider `CCCC(C)c1ccc(OCCCCCCN2CCNCC2)cc1` (configuration not stated), for which the GI50 was 1.57 µM and the TGI was 3.07 µM.
The molecule `CCC1C[N+]23CCc4c([nH]c5ccccc45)C2CC1CC3` (configuration not stated) returned a TGI greater than 100 µM.
Regarding `CC1=C2C(O)C(C(C)C(=O)N(C)C)CCC2(C)C=CC1=O` (configuration not stated), the TGI is greater than 100 µM.
Same read-out and setting: the same measure for `Cc1ccc(S(=O)(=O)Nc2cccc3c(=O)[nH]cnc23)cc1`: greater than 100 µM.
`O=C1C=C(C2OC(CO)C(O)C2O)C(=O)N1` (configuration not stated) had a TGI greater than 100 µM.

The subject of the next test is RXF 393 renal. As to the kind of experiment: NCI anticancer screen, dose series, 48 h.
In the case of `C=C1C(=O)OC2/C=C(\C(=O)O)CC/C=C(\C)CC(OC(=O)/C=C(\C)CC)C12` (configuration not stated), the TGI is 27.5 µM.
`O=C(c1ccccc1)c1ccc2n[se]nc2c1` had a TGI greater than 100 µM.
The same measure, in the same setting: the same measure for `CC(=O)C(C(c1ccccc1)N1CCOCC1)N1CCOCC1` (configuration not stated): greater than 100 µM; for `CCOP(=Nc1ccc(N(C)C)cc1)(OCC)OCC`: greater than 100 µM.
Turning to `CCCC(C)c1ccc(OCCCCCCN2CCNCC2)cc1` (configuration not stated), the GI50 is 1.55 µM and the TGI worked out at 3 µM.
`CCC1C[N+]23CCc4c([nH]c5ccccc45)C2CC1CC3` (configuration not stated): the TGI was greater than 100 µM.
Molecule `CC1=C2C(O)C(C(C)C(=O)N(C)C)CCC2(C)C=CC1=O` (configuration not stated) returned a TGI greater than 100 µM.
Still for that read-out and setting: the same measure for `Cc1ccc(S(=O)(=O)Nc2cccc3c(=O)[nH]cnc23)cc1`: greater than 100 µM; for `O=C1C=C(C2OC(CO)C(O)C2O)C(=O)N1` (configuration not stated): greater than 100 µM.

The subject of another test is HOP-62 NSCLC. The test is described as follows: NCI anticancer screen, dose series, 48 h.
Regarding `C=C1C(=O)OC2/C=C(\C(=O)O)CC/C=C(\C)CC(OC(=O)/C=C(\C)CC)C12` (configuration not stated), the TGI worked out at 34.5 µM.
Same read-out and setting: the same measure for `CC(=O)C(C(c1ccccc1)N1CCOCC1)N1CCOCC1` (configuration not stated): greater than 100 µM.
Still for that read-out and setting: the same measure for `CCOP(=Nc1ccc(N(C)C)cc1)(OCC)OCC`: greater than 100 µM.
Consider `CCCC(C)c1ccc(OCCCCCCN2CCNCC2)cc1` (configuration not stated), for which the GI50 was 4.55 µM and the TGI was 24.1 µM.
For `CCC1C[N+]23CCc4c([nH]c5ccccc45)C2CC1CC3` (configuration not stated), the TGI was greater than 100 µM.
Molecule `CC1=C2C(O)C(C(C)C(=O)N(C)C)CCC2(C)C=CC1=O` (configuration not stated) registered a TGI greater than 100 µM.
Still for that read-out and setting: the same measure for `Cc1ccc(S(=O)(=O)Nc2cccc3c(=O)[nH]cnc23)cc1`: greater than 100 µM.
`O=C1C=C(C2OC(CO)C(O)C2O)C(=O)N1` (configuration not stated) registered a TGI greater than 100 µM.
